We go through two compounds from patent US5756546A (priority 1994, dated 1998).

Structures can show the parent of a compound that is named as a salt.

The conditions of data set [1]: whether or not linked with L-arginine.
The conditions of data set [2]: known salts in solution; cited from earlier work.

Regarding `CS(=O)(=O)Nc1ccc([N+](=O)[O-])cc1Oc1ccccc1` [nimesulide-L-lysine salt], the “pH imposed in solution compared with the alkali metal salts (in words)” value in data set [1] is “markedly less alkaline pH”.
Regarding `CS(=O)(=O)Nc1ccc([N+](=O)[O-])cc1Oc1ccccc1` [sodium salt of nimesulide], in data set [2], the “pH imposed in solution (in words)” value is given as “relatively alkaline pH”.
